The results in this text go back to PubChem BioAssay (NCI).

Among the test systems are HCT-116 colon; HOP-92 NSCLC; UACC-62 melanoma; KM20L2 colon; A549 NSCLC; U251 CNS; ACHN renal; SNB-78 CNS; M14 melanoma; SNB-19 CNS.
Experiment in all cases: NCI tumour cell line growth inhibition, 48 h

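Exposure lasted 48 hours, with cells grown in 96-well plates and compounds tested at five concentrations. TGI: concentration producing complete growth inhibition.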 Where only a bound is given, the exact number is not on record here.

Consider `COc1ccc(/C(Cl)=C(\C=O)c2ccc(OC)c(OC)c2)cc1OC`, for which the TGI with HCT-116 colon, with HOP-92 NSCLC, with UACC-62 melanoma, in the test on KM20L2 colon, in the test on A549 NSCLC and in the test on U251 CNS was more than 100 µM in each case. The TGI with ACHN renal, with SNB-78 CNS, in the test with M14 melanoma and with SNB-19 CNS was more than 100 µM each time.

`COc1ccc(/C=C/c2nc(=S)[nH][nH]2)cc1`: the TGI with HCT-116 colon, in the test with HOP-92 NSCLC, with UACC-62 melanoma, with KM20L2 colon, in the test on A549 NSCLC and in the test on U251 CNS was more than 100 µM each time. The TGI in the test with ACHN renal, with SNB-78 CNS, with M14 melanoma and with SNB-19 CNS was more than 100 µM in each case.

On to `CS(=O)(=O)OCCN(CCOS(C)(=O)=O)c1ccc(C=Nc2ccc3oc(=O)ccc3c2)cc1`, for which the TGI was more than 100 µM with HCT-116 colon; 47.1 µM with HOP-92 NSCLC; 19.8 µM with UACC-62 melanoma; more than 100 µM with KM20L2 colon; 35.3 µM in the test on A549 NSCLC; 41.9 µM in the test with U251 CNS. In addition, the TGI in the test on ACHN renal was 4.91 µM; with SNB-78 CNS, 12.5 µM; in the test with M14 melanoma, 31.6 µM; in the test with SNB-19 CNS, 80.7 µM.

As for `CC(=O)NCCCCCCNC(C)=O`, the TGI with HCT-116 colon is more than 10000 µM; with HOP-92 NSCLC, more than 6730 µM; with UACC-62 melanoma, 9870 µM; with KM20L2 colon it was more than 10000 µM; in the test on A549 NSCLC it was more than 9660 µM; in the test with U251 CNS, more than 10000 µM. Further, the TGI with ACHN renal, in the test on SNB-78 CNS, with M14 melanoma and in the test with SNB-19 CNS was more than 10000 µM in each case.

For `CCOC(=O)C1=C(NC(C)(C)C)OCC1=O`, the TGI with HCT-116 colon, in the test with HOP-92 NSCLC, in the test with UACC-62 melanoma, in the test with KM20L2 colon, with A549 NSCLC and with U251 CNS was more than 100 µM each time. Also, the TGI in the test with ACHN renal, in the test on SNB-78 CNS, in the test on M14 melanoma and with SNB-19 CNS was more than 100 µM each time.

On to `Cc1c(C2Cc3ccccc3N2C(=O)/C=C\C(=O)O)c2ccccc2n1C` (stereo not given), for which the TGI is 94.1 µM with HCT-116 colon; 36.3 µM with HOP-92 NSCLC; 35.8 µM in the test with UACC-62 melanoma; 58.3 µM in the test on KM20L2 colon; more than 100 µM in the test on A549 NSCLC; 40.6 µM in the test with U251 CNS. The TGI in the test on ACHN renal is more than 100 µM; with SNB-78 CNS, more than 100 µM; in the test with M14 melanoma it was 76.2 µM; in the test on SNB-19 CNS, 37.2 µM.
